According to patent publication US8557763B2, “Synthetic peptides that enhance tight junction permeability” (Alba Therapeutics Corporation, priority 2007, dated 2013):
Where no end group is shown, it is not given here. [ ]: non-standard residue; d: D form. AllylGly = C=CC[C@H](N)C(=O)O

How the values were obtained:
CaCo2 monolayers [1] = assay: Trans Epithelial Electric Resistance (TEER) across CaCo2 monolayers; type: cell-based; design: key to Reduced TEER: + indicates an enhancement of the permeability of the tight junctions were observed; − indicates no enhancement of permeability was observed; conditions: CaCo2 monolayers
Excerpt: (§1) Agonists of tight junctions can be identified by their ability to enhance the flux of compounds (e.g. ions, Lucifer Yellow) through a cell monolayer that comprises tight junctions; or by their ability to reduce TEER across a cell monolayer that comprises tight junctions. Treatment of CaCo2 monolayers with peptide FCIGRL (SEQ ID NO: 1) led to a 51-fold enhancement of Lucifer Yellow permeability through CaCo2 monolayers compared to vehicle alone.
Treatment of CaCo2 monolayers with peptide FCIGRL led to a 16-fold decrease in TEER across CaCo2 monolayers compared to vehicle alone.
(§2) Tight junction agonists can be identified and tested using the following method:
(§3) Determination of TEER and Lucifer Yellow Flux
(§4) Prepare Modified Hank's Balanced Salt Solution (MHBSS) by obtaining 1 L bottle of HBSS removing 10 ml of HBSS and replacing it with 10 ml HEPES buffer pH 7.0. Adjust pH to 7.4±0.1 using concentrated NaOH (10N).
(§5) Remove CaCo-2 cells from incubator, grown on 12-well, 3.0 μM, polycarbonate Transwell® filters (Corning) and record passage#, date cells seeded and age in days.
(§6) Aspirate cell culture medium from both the apical (AP) and basolateral (BL) compartments, replacing with 0.5 ml and 1.5 ml of MHBSS, respectively. Incubate cells at 37° C. for 30 minutes.
Using the MilliCell®-ERS instrument (Millipore), measure and record the transepithelial electrical resistance (TEER) across each filter and record.
(§7) Aspirate solution from the apical compartment of each filter (n=3 per condition) and replace with 0.5 ml of control and test solutions containing Lucifer Yellow and test compound if appropriate.
(§8) Place all plates into incubator set at 37° C. (±0.2), 50 RPM (±5) for a total of 180 minutes.
At t=30, 60, 120 and 180 minutes, measure and record the transepithelial electrical resistance (TEER) across each filter using the MilliCell-ERS instrument.
(§9) Cells: CaCo-2 cells passage 40-60 grown on Transwell® plates for 21-28 days
(§10) Culture Medium: DMEM supplemented with 10% fetal bovine serum, 1% NEAA, 1% Penn/Strep
(§11) Buffers: Hank's Balanced Salt Solution (HBSS) without calcium and magnesium
(§12) Flasks: 100×20 mm Tissue culture dish Falcon.
(§13) Plates: 12 well polycarbonate Transwell® filters; 0.3 uM pore size

CaCo2 monolayers [2] = assay: Lucifer Yellow (LY) permeability assay through CaCo2 monolayers; type: cell-based; design: key to Enhanced LY permeability: + indicates an enhancement of the permeability of the tight junctions were observed; − indicates no enhancement of permeability was observed; conditions: CaCo2 monolayers, Lucifer Yellow flux
Excerpt: as §1, §2, §3, §4, §5, §6, §7, §8
At t=60, 120 and 180 minutes remove […] from each basolateral compartment and place it in a 96-well plate for Lucifer Yellow analysis, replace with 100 μl of MHBSS.
Make a Lucifer Yellow standard curve with the following dilutions (7500 μM, 3750 μM, 750 μM, 375 μM, 37.5 μM, 7.5 μM, 3.75 μM, 0.75 μM) and pipette 100 μL of each into a 96-well plate except for the first three standards mentioned above which require a 1:10 dilutions prior to transferring to the 96-well plate.
Harvest the remaining start solutions and what is left in each apical compartment into 1.5 ml vials. Freeze at −20° C. for future analysis.
Analyze each 96-well plate in a Tecan Spectra Fluor Plus using Magellan at 485 and 535 nm.
as §9, §10, §11, §12, §13

Substance	Reduced TEER (CaCo2 monolayers [1])	Enhanced LY permeability (CaCo2 monolayers [2])
32 (F[AllylGly]DGRL-NH2; N-terminus assumed; SMILES C=CC[C@H](NC(=O)[C@@H](N)Cc1ccccc1)C(=O)N[C@@H](CC(=O)O)C(=O)NCC(=O)N[C@@H](CCCNC(=N)N)C(=O)N[C@@H](CC(C)C)C(N)=O) [compound 32]	+	+
56 (F[AllylGly]IGDL-NH2; N-terminus assumed; SMILES C=CC[C@H](NC(=O)[C@@H](N)Cc1ccccc1)C(=O)N[C@H](C(=O)NCC(=O)N[C@@H](CC(=O)O)C(=O)N[C@@H](CC(C)C)C(N)=O)[C@@H](C)CC) [compound 56]	+	+
45 (F[AllylGly]IHRL-NH2; N-terminus assumed; SMILES C=CC[C@H](NC(=O)[C@@H](N)Cc1ccccc1)C(=O)N[C@H](C(=O)N[C@@H](Cc1c[nH]cn1)C(=O)N[C@@H](CCCNC(=N)N)C(=O)N[C@@H](CC(C)C)C(N)=O)[C@@H](C)CC) [compound 45]	+	+
3 (F[AllylGly]IGR-NH2; N-terminus assumed; SMILES C=CC[C@H](NC(=O)[C@@H](N)Cc1ccccc1)C(=O)N[C@H](C(=O)NCC(=O)N[C@@H](CCCNC(=N)N)C(N)=O)[C@@H](C)CC) [compound 3]	−	−
11 (V[AllylGly]IGRL-NH2; N-terminus assumed; SMILES C=CC[C@H](NC(=O)[C@@H](N)C(C)C)C(=O)N[C@H](C(=O)NCC(=O)N[C@@H](CCCNC(=N)N)C(=O)N[C@@H](CC(C)C)C(N)=O)[C@@H](C)CC) [compound 11]	−	−
70 (F[AllylGly]IGWL-NH2; N-terminus assumed; SMILES C=CC[C@H](NC(=O)[C@@H](N)Cc1ccccc1)C(=O)N[C@H](C(=O)NCC(=O)N[C@@H](Cc1c[nH]c2ccccc12)C(=O)N[C@@H](CC(C)C)C(N)=O)[C@@H](C)CC) [compound 70]		+
48 (F[AllylGly]IQRL-NH2; N-terminus assumed; SMILES C=CC[C@H](NC(=O)[C@@H](N)Cc1ccccc1)C(=O)N[C@H](C(=O)N[C@@H](CCC(N)=O)C(=O)N[C@@H](CCCNC(=N)N)C(=O)N[C@@H](CC(C)C)C(N)=O)[C@@H](C)CC) [compound 48]	+	+
79 (F[AllylGly]IGRQ-NH2; N-terminus assumed; SMILES C=CC[C@H](NC(=O)[C@@H](N)Cc1ccccc1)C(=O)N[C@H](C(=O)NCC(=O)N[C@@H](CCCNC(=N)N)C(=O)N[C@@H](CCC(N)=O)C(N)=O)[C@@H](C)CC) [compound 79]	−	−
72 (F[AllylGly]IGVL-NH2; N-terminus assumed; SMILES C=CC[C@H](NC(=O)[C@@H](N)Cc1ccccc1)C(=O)N[C@H](C(=O)NCC(=O)N[C@H](C(=O)N[C@@H](CC(C)C)C(N)=O)C(C)C)[C@@H](C)CC) [compound 72]	+	−
84 (F[AllylGly]IGRN-NH2; N-terminus assumed; SMILES C=CC[C@H](NC(=O)[C@@H](N)Cc1ccccc1)C(=O)N[C@H](C(=O)NCC(=O)N[C@@H](CCCNC(=N)N)C(=O)N[C@@H](CC(N)=O)C(N)=O)[C@@H](C)CC) [compound 84]	+	+
81 (F[AllylGly]IGRT-NH2; N-terminus assumed; SMILES C=CC[C@H](NC(=O)[C@@H](N)Cc1ccccc1)C(=O)N[C@H](C(=O)NCC(=O)N[C@@H](CCCNC(=N)N)C(=O)N[C@H](C(N)=O)[C@@H](C)O)[C@@H](C)CC) [compound 81]		−
46 (F[AllylGly]IDRL-NH2; N-terminus assumed; SMILES C=CC[C@H](NC(=O)[C@@H](N)Cc1ccccc1)C(=O)N[C@H](C(=O)N[C@@H](CC(=O)O)C(=O)N[C@@H](CCCNC(=N)N)C(=O)N[C@@H](CC(C)C)C(N)=O)[C@@H](C)CC) [compound 46]	+	+
78 (F[AllylGly]IGRG-NH2; N-terminus assumed; SMILES C=CC[C@H](NC(=O)[C@@H](N)Cc1ccccc1)C(=O)N[C@H](C(=O)NCC(=O)N[C@@H](CCCNC(=N)N)C(=O)NCC(N)=O)[C@@H](C)CC) [compound 78]	−	+
52 (F[AllylGly]INRL-NH2; N-terminus assumed; SMILES C=CC[C@H](NC(=O)[C@@H](N)Cc1ccccc1)C(=O)N[C@H](C(=O)N[C@@H](CC(N)=O)C(=O)N[C@@H](CCCNC(=N)N)C(=O)N[C@@H](CC(C)C)C(N)=O)[C@@H](C)CC) [compound 52]	+	+
60 (F[AllylGly]IGAL-NH2; N-terminus assumed; SMILES C=CC[C@H](NC(=O)[C@@H](N)Cc1ccccc1)C(=O)N[C@H](C(=O)NCC(=O)N[C@@H](C)C(=O)N[C@@H](CC(C)C)C(N)=O)[C@@H](C)CC) [compound 60]		+
82 (F[AllylGly]IGRY-NH2; N-terminus assumed; SMILES C=CC[C@H](NC(=O)[C@@H](N)Cc1ccccc1)C(=O)N[C@H](C(=O)NCC(=O)N[C@@H](CCCNC(=N)N)C(=O)N[C@@H](Cc1ccc(O)cc1)C(N)=O)[C@@H](C)CC) [compound 82]	+	+
5 (M[AllylGly]IGRL-NH2; N-terminus assumed; SMILES C=CC[C@H](NC(=O)[C@@H](N)CCSC)C(=O)N[C@H](C(=O)NCC(=O)N[C@@H](CCCNC(=N)N)C(=O)N[C@@H](CC(C)C)C(N)=O)[C@@H](C)CC) [compound 5]	−	+
87 (F[AllylGly]IGRI-NH2; N-terminus assumed; SMILES C=CC[C@H](NC(=O)[C@@H](N)Cc1ccccc1)C(=O)N[C@H](C(=O)NCC(=O)N[C@@H](CCCNC(=N)N)C(=O)N[C@H](C(N)=O)[C@@H](C)CC)[C@@H](C)CC) [compound 87]	+	+
31 (F[AllylGly]HGRL-NH2; N-terminus assumed; SMILES C=CC[C@H](NC(=O)[C@@H](N)Cc1ccccc1)C(=O)N[C@@H](Cc1c[nH]cn1)C(=O)NCC(=O)N[C@@H](CCCNC(=N)N)C(=O)N[C@@H](CC(C)C)C(N)=O) [compound 31]	+	+
9 (T[AllylGly]IGRL-NH2; N-terminus assumed; SMILES C=CC[C@H](NC(=O)[C@@H](N)[C@@H](C)O)C(=O)N[C@H](C(=O)NCC(=O)N[C@@H](CCCNC(=N)N)C(=O)N[C@@H](CC(C)C)C(N)=O)[C@@H](C)CC) [compound 9]	−	
38 (F[AllylGly]YGRL-NH2; N-terminus assumed; SMILES C=CC[C@H](NC(=O)[C@@H](N)Cc1ccccc1)C(=O)N[C@@H](Cc1ccc(O)cc1)C(=O)NCC(=O)N[C@@H](CCCNC(=N)N)C(=O)N[C@@H](CC(C)C)C(N)=O) [compound 38]	+	+
69 (F[AllylGly]IGIL-NH2; N-terminus assumed; SMILES C=CC[C@H](NC(=O)[C@@H](N)Cc1ccccc1)C(=O)N[C@H](C(=O)NCC(=O)N[C@H](C(=O)N[C@@H](CC(C)C)C(N)=O)[C@@H](C)CC)[C@@H](C)CC) [compound 69]	−	
14 (D[AllylGly]IGRL-NH2; N-terminus assumed; SMILES C=CC[C@H](NC(=O)[C@@H](N)CC(=O)O)C(=O)N[C@H](C(=O)NCC(=O)N[C@@H](CCCNC(=N)N)C(=O)N[C@@H](CC(C)C)C(N)=O)[C@@H](C)CC) [compound 14]	−	
68 (F[AllylGly]IGTL-NH2; N-terminus assumed; SMILES C=CC[C@H](NC(=O)[C@@H](N)Cc1ccccc1)C(=O)N[C@H](C(=O)NCC(=O)N[C@H](C(=O)N[C@@H](CC(C)C)C(N)=O)[C@@H](C)O)[C@@H](C)CC) [compound 68]	+	
